Measurements from patent publication US20220142958A1, “MEDICINAL COMPOSITION HAVING EXCELLENT STABILITY” (EA Pharma Co., Ltd., priority 2019, published 2022).

How the values were obtained:
[1] = Example 1A: residual ratio of Compound A1 in buffer solutions stored at 5° C.; type: physicochemical; settings: for Residual ratio (%): 0.1 mg/mL
Protocol: Compound A1 was dissolved in each of the buffer solutions so that a concentration was 0.1 mg/mL. Each of these solutions was dispensed into a glass vial and stored at 5° C. After the storage, a residual ratio was calculated according to a test method described below.
Test method: In the solution after the storage, the residual ratio was analyzed according to a normal method using a liquid chromatography apparatus Prominence (manufactured by Shimadzu Corporation) and an ultraviolet absorptiometer (measurement wavelength: 254 nm, Prominence (manufactured by Shimadzu Corporation)). At this time, SUMIPAX ODS (3 mm×150 mm, 5 μm, manufactured by SCAS) was used as a column.
The residual ratio (%) of Compound A1 during each storage period at 5° C. was calculated as follows.
Residual ratio (%) of Compound A1 during each storage period=peak area of Compound A1 in sample solution/sum of peak area of sample solution×100

[2] = tested on: serum iPTH concentration; assay: Serum iPTH concentration in bilaterally nephrectomized rats after single intravenous administration; type: in vivo, rat
Text: After quarantine and acclimatization periods of 6 days, fifty-one rats (Crl: CD (SD), male) aged 7 weeks were fed a 100% sucrose diet ad libitum from four days before the surgery. On the day of the surgery, skin incisions were made on the back at the sites of the right and left kidneys under isoflurane anesthesia and the renal capsules were removed to ligate the renal arteries and veins and the ureters using threads before removing the right and left kidneys. A penicillin solution was given upon suturing, and 5 mL of physiological saline was intraperitoneally administered before returning the rats into the breeding cages.
On the day of administering the test substance, for example, a day after the bilaterally nephrectomy, approximately 100 μL of blood was collected from the tail vein without anesthesia using a capillary tube, which was centrifuged in a high speed refrigerated microcentrifuge (10,000 rpm, 5 min, 4° C.) to separate the serum. Thereafter, the serum Ca concentration was measured with a dri-chemanalyzer (model number: FUJI DRI-CHEM 7000, manufacturer: FUJI FILM Medical Co., Ltd.) to select individuals with a serum Ca concentration of 8.0 mg/dL or more and less than 14.0 mg/dL.
On a day after the bilaterally nephrectomy, the given doses were calculated based on the weight of the selected animals on that day. Group 1 was given a medium (physiological saline), Groups 2, 3 and 4 were given the Compound A1 solution (0.3, 3 and 30 mg/mL, respectively), and Groups 5, 6, 7 and 8 (5 rats per group) were given the comparative compound (0.3, 1, 3 and 10 mg/mL, respectively), each given a single dose of 1 ml/kg from the tail vein. Prior to the administration (0 hours), and 24 and 48 hours after the administration, approximately 300 μL of blood was collected without anesthesia from the tail vein using capillary tubes for obtaining the serum. The blood for obtaining the serum was left to stand at room temperature, and centrifuged in a high speed refrigerated microcentrifuge (10,000 rpm, 5 min, 4° C.) within a period of 30 minutes to 2 hours after the blood collection to collect the serum.
Thereafter, the serum Ca was analyzed with COBAS analyzer (Model number: COBAS INTEGRA 400 plus, manufacturer: Roche Diagnostics K.K.), and the remaining serum was stored in an ultra-low freezer (temperature set to −80±15° C.) until the day of iPTH measurement. On the day of iPTH measurement, the serum was melted at room temperature for measurement.
A 30 mg/ml Compound A1 solution ([…] of Compound A1 dissolved in 10 ml of physiological saline) was diluted with physiological saline to prepare 0.3 mg/ml and […] Compound A1 solutions.
149 mg of etelcalcetide (Ac-c(C) arrrar-NH2) TFA salt (WO 2011/014707 A) was prepared to have pH of 6 to 8 with 7 ml of physiological saline and a 0.5N aqueous NaOH solution, and physiological saline was further added thereto to make 10 ml. The prepared 10 mg/ml comparative compound solution was diluted with physiological saline to obtain 0.3 mg/ml and 1 mg/ml comparative compound solutions.

[3] = Non-clinical studies of excretion and elimination (normal rat); type: in vivo
[4] = tested on: SHPT patients on maintenance hemodialysis; assay: Phase I/II clinical trial, single administration; type: in vivo, human; settings: for percentage decrease in the serum iPTH concentration: 66 hours after the administration
Protocol: Targeting SHPT patients on maintenance hemodialysis, pharmacokinetics, pharmacodynamics and safety upon single or repeated intravenous administration of Compound A1 were examined by conducting a double-blind test using a placebo as a control.
Single administration: Based on the clinically effective dose calculated in Reference Example 5, the doses were given at 0.025 mg, 0.05 mg, 0.1 mg, 0.2 mg, 0.4 mg, 0.6 mg, and 0.8 mg (7 steps). On the day of trial drug administration, the trial drug was intravenously administered as slow as possible within 60 seconds 2 to 4 hours following the end of dialysis. Here, the trial drug was administered by diluting a required dose taken from the Compound A1 vial formulation prepared as follows with sterilized water for injection, and filling a syringe with the resultant in accordance with the dose to be administered.
Each item was evaluated according to the predetermined evaluation schedule.
A vial formulation encapsulating 1 mg of Compound A1 in terms of a dehydrate, and sodium chloride, disodium hydrogen phosphate dodecahydrate, and sodium dihydrogen phosphate dihydrate as additives in 10 ml of sterilized water for injection

**Q.** With Cc1c(Cl)cc(S(=O)(=O)[O-])cc1NC(=O)NC[C@H](N)C(=O)O.[Na+] [Compound A1, sodium 3-{[(2S)-2-amino-2-carboxyethyl]carbamoylamino}-5-chloro-4-methylbenzenesulfonate] as the compound, how does the “Residual ratio (%)” value ([1]; pH 1.1, 5° C., 24 hours) read?
**A.** Its value is 100%.

**Q.** And the “Residual ratio (%)” value ([1]; pH 1.1, 5° C., 113 hours)?
**A.** Its value is 100%.

**Q.** What about the “Residual ratio (%)” value ([1]; pH 1.1, 5° C., 161 hours) of the same compound?
**A.** The value was 100%.

**Q.** And the “Residual ratio (%)” value ([1]; pH 2.0, 5° C., 24 hours)?
**A.** The value was 100%.

**Q.** And the “Residual ratio (%)” value ([1]; pH 2.0, 5° C., 113 hours)?
**A.** The value was 100%.

**Q.** What about the “Residual ratio (%)” value ([1]; pH 2.0, 5° C., 161 hours) of the same compound?
**A.** The value was 100%.

**Q.** What about the “Residual ratio (%)” value ([1]; pH 3.0, 5° C., 24 hours) of the same compound?
**A.** Its value is 100%.

**Q.** And the “Residual ratio (%)” value ([1]; pH 3.0, 5° C., 113 hours)?
**A.** The value was 100%.

**Q.** What about the “Residual ratio (%)” value ([1]; pH 3.0, 5° C., 161 hours) of the same compound?
**A.** Its value is 100%.

**Q.** What about the “Residual ratio (%)” value ([1]; pH 4.0, 5° C., 24 hours) of the same compound?
**A.** Its value is 100%.

**Q.** What about the “Residual ratio (%)” value ([1]; pH 4.0, 5° C., 113 hours) of the same compound?
**A.** Its value is 100%.

**Q.** What about the “Residual ratio (%)” value ([1]; pH 4.0, 5° C., 161 hours) of the same compound?
**A.** The value was 100%.

**Q.** And the “Residual ratio (%)” value ([1]; pH 5.0, 5° C., 24 hours)?
**A.** Its value is 100%.

**Q.** What about the “Residual ratio (%)” value ([1]; pH 5.0, 5° C., 113 hours) of the same compound?
**A.** Its value is 100%.

**Q.** What about the “Residual ratio (%)” value ([1]; pH 5.0, 5° C., 161 hours) of the same compound?
**A.** Its value is 100%.

**Q.** And the “Residual ratio (%)” value ([1]; pH 6.0, 5° C., 24 hours)?
**A.** Its value is 100%.

**Q.** What about the “Residual ratio (%)” value ([1]; pH 6.0, 5° C., 113 hours) of the same compound?
**A.** The value was 100%.

**Q.** And the “Residual ratio (%)” value ([1]; pH 6.0, 5° C., 161 hours)?
**A.** The value was 100%.

**Q.** What about the “Residual ratio (%)” value ([1]; pH 7.0, 5° C., 24 hours) of the same compound?
**A.** The value was 100%.

**Q.** And the “Residual ratio (%)” value ([1]; pH 7.0, 5° C., 113 hours)?
**A.** The value was 100%.

**Q.** What about the “Residual ratio (%)” value ([1]; pH 7.0, 5° C., 161 hours) of the same compound?
**A.** The value was 100%.

**Q.** And the “stability of the formulation” value ([1]; pH of 1.1 to 7.0, 5° C.)?
**A.** Its value is “stable”.

**Q.** What about the mean serum iPTH concentration ([2]; 0.3 mg/kg single i.v., 24 hours after the administration) of the same compound?
**A.** Its mean serum iPTH concentration is 140 pg/mL.

**Q.** What about the mean serum iPTH concentration ([2]; 0.3 mg/kg single i.v., 48 hours after the administration) of the same compound?
**A.** Its mean serum iPTH concentration is 338 pg/mL.

**Q.** What about the mean serum iPTH concentration ([2]; 3 mg/kg single i.v., 24 hours after the administration) of the same compound?
**A.** The mean serum iPTH concentration was 138 pg/mL.

**Q.** What about the mean serum iPTH concentration ([2]; 3 mg/kg single i.v., 48 hours after the administration) of the same compound?
**A.** Its mean serum iPTH concentration is 280 pg/mL.

**Q.** And the mean serum iPTH concentration ([2]; 30 mg/kg single i.v., 24 hours after the administration)?
**A.** The mean serum iPTH concentration was 118 pg/mL.

**Q.** And the mean serum iPTH concentration ([2]; 30 mg/kg single i.v., 48 hours after the administration)?
**A.** The mean serum iPTH concentration was 245 pg/mL.

**Q.** And the EC50 ([2]; Rattus norvegicus, iv, plasma concentration, rats, read-out: 50% effective concentration, EC50 value, for decreasing the serum iPTH concentration)?
**A.** Its EC50 is 0.075 µg/mL.

**Q.** What about the “lower limit value of the serum iPTH concentration (simulated)” value ([2]; logistic curve fitting, 48 hours after the administration vs given dose) of the same compound?
**A.** Its value is 203.0 pg/mL.

**Q.** What about the “decrease of serum iPTH and Ca concentrations” value ([2]; renal failure rat models, during 48 hours after the administration, relation to dose) of the same compound?
**A.** The value was “sufficiently decreased during the 48 hours after the administration but the decreases were gradual with respect to the increase in the dose”.

**Q.** And the “elimination from the plasma” value ([3]; intravenously administered to a normal rat)?
**A.** Its value is “rapidly eliminated”.

**Q.** What about the “main route of excretion” value ([3]; non-clinical studies) of the same compound?
**A.** Its value is “renal excretion”.

**Q.** What about the “percentage decrease in the serum iPTH concentration” value (“percentage decrease” for short) ([4]; 0.025 mg dose group) of the same compound?
**A.** Its value is 27%.

**Q.** What about the “percentage decrease” value ([4]; 0.05 mg dose group) of the same compound?
**A.** The value was 48%.

**Q.** What about the “percentage decrease” value ([4]; 0.1 mg dose group) of the same compound?
**A.** Its value is 44%.

**Q.** And the “percentage decrease” value ([4]; 0.2 mg dose group)?
**A.** Its value is 57%.

**Q.** And the “percentage decrease” value ([4]; 0.4 mg dose group)?
**A.** The value was 78%.

**Q.** What about the “percentage decrease” value ([4]; 0.6 mg dose group) of the same compound?
**A.** The value was 69%.

**Q.** What about the “percentage decrease” value ([4]; 0.8 mg dose group) of the same compound?
**A.** Its value is 66%.

**Q.** What about the “time the serum iPTH lowering effect continued after the administration” value ([4]; single administration, just before the dialysis) of the same compound?
**A.** Its value is “up to 66 hours”.

**Q.** What about the vomiting ([4]; single administration, observed in the 0.4 mg and higher dose groups) of the same compound?
**A.** The vomiting was “non-severe and mild”.

**Q.** What about the nausea ([4]; single administration, observed in the 0.6 mg and higher dose groups) of the same compound?
**A.** The nausea was “non-severe and mild”.

**Q.** What about the “Cmax and AUC in plasma” value ([4]; single i.v. 0.025 to 0.8 mg, relation to dose) of the same compound?
**A.** The value was “increased with the increase in the given dose”.
